Results taken from patent publication US8586110B2, “Therapeutic composition produced using Camellia sinensis leaves and hydrogen peroxide” (LiveLeaf, Inc., priority 2007, dated 2013).

Test system: wild strain E-Coli
Test: E-Coli culture turbidity over time (Experiment 4)
Format: cell-based
Conditions: 25 ppm hydrogen peroxide or equivalent concentration
Experimental: A wild strain E-Coli culture was added to three samples. The sample A contained 25 ppm hydrogen peroxide in water. The sample B contained a solution of Formulation A diluted to equivalent 25 ppm hydrogen peroxide fraction. The sample C contained a solution having a green tea extract of the same concentration of Formulation A but without hydrogen peroxide.

With `OO` [hydrogen peroxide] the “antimicrobial effect on bacteria population (visual turbidity)” value was “initially reduced but began to exhibit increased visual turbidity after 16 hours”.
